Data taken from PubChem BioAssay (NCI).
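Protocol summary: plate cells (96-well), add compound at 5 concentrations, incubate 48 h, interpolate endpoints linearly. Abbreviation: GI50, concentration required for 50% inhibition of growth. The concentration for full growth arrest is given as TGI.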

How the values were obtained:
Test in all cases: DTP human tumour cell line panel, 48 h
[1] = test system: 786-0 renal
[2] = test system: A549 NSCLC
[3] = test system: ACHN renal
[4] = test system: CCRF-CEM leukemia
[5] = test system: COLO 205 colon
[6] = test system: DLD-1 colon
[7] = test system: DMS 114 small cell lung
[8] = test system: EKVX NSCLC
[9] = test system: HCC-2998 colon
[10] = test system: HCT-15 colon
[11] = test system: HL-60(TB) leukemia
[12] = test system: HOP-18 NSCLC
[13] = test system: HOP-92 NSCLC
[14] = test system: IGROV1 ovarian
[15] = test system: K-562 leukemia
[16] = test system: KM12 colon
[17] = test system: M14 melanoma
[18] = test system: M19-MEL melanoma
[19] = test system: MALME-3M melanoma
[20] = test system: MOLT-4 leukemia
[21] = test system: NCI-H226 lung
[22] = test system: NCI-H23 lung
[23] = test system: OVCAR-5 ovarian
[24] = test system: OVCAR-8 ovarian
[25] = test system: RPMI-8226 leukemia
[26] = test system: RXF 393 renal
[27] = test system: SF-268 CNS
[28] = test system: SF-295 CNS
[29] = test system: SF-539 CNS
[30] = test system: SK-MEL-2 melanoma
[31] = test system: SK-MEL-28 melanoma
[32] = test system: SK-OV-3 ovarian
[33] = test system: SN12C renal
[34] = test system: SNB-19 CNS
[35] = test system: SNB-75 CNS
[36] = test system: SNB-78 CNS
[37] = test system: SR leukemia
[38] = test system: SW-620 colon
[39] = test system: TK-10 renal
[40] = test system: UACC-257 melanoma
[41] = test system: UACC-62 melanoma
[42] = test system: UO-31 renal
[43] = test system: XF 498 CNS

SMILES: O=S(=O)([O-])c1ccc(N=Cc2ccccc2[O-])cc1.O=S(=O)([O-])c1ccc(N=Cc2ccccc2[O-])cc1.[Co+2]
- GI50 [1]: 76.7 µM
- TGI [1]: > 100 µM
- GI50 [2]: > 100 µM
- TGI [2]: > 100 µM
- GI50 [3]: > 100 µM
- TGI [3]: > 100 µM
- GI50 [4]: 15.5 µM
- TGI [4]: > 100 µM
- GI50 [5]: > 100 µM
- TGI [5]: > 100 µM
- GI50 [6]: 51.1 µM
- TGI [6]: > 100 µM
- GI50 [7]: 28.3 µM
- TGI [7]: > 100 µM
- GI50 [8]: 69.2 µM
- TGI [8]: > 100 µM
- GI50 [9]: 79.1 µM
- TGI [9]: > 100 µM
- GI50 [10]: > 100 µM
- TGI [10]: > 100 µM
- GI50 [11]: 40.1 µM
- TGI [11]: > 100 µM
- GI50 [12]: 85.5 µM
- TGI [12]: > 100 µM
- GI50 [13]: 52.1 µM
- TGI [13]: > 100 µM
- GI50 [14]: > 100 µM
- TGI [14]: > 100 µM
- GI50 [15]: > 100 µM
- TGI [15]: > 100 µM
- GI50 [16]: > 100 µM
- TGI [16]: > 100 µM
- GI50 [17]: 79.6 µM
- TGI [17]: > 100 µM
- GI50 [18]: 76.5 µM
- TGI [18]: > 100 µM
- GI50 [19]: > 100 µM
- TGI [19]: > 100 µM
- GI50 [20]: 21.7 µM
- TGI [20]: > 100 µM
- GI50 [21]: > 100 µM
- TGI [21]: > 100 µM
- GI50 [22]: > 100 µM
- TGI [22]: > 100 µM
- GI50 [23]: > 100 µM
- TGI [23]: > 100 µM
- GI50 [24]: > 100 µM
- TGI [24]: > 100 µM
- GI50 [25]: 96.8 µM
- TGI [25]: > 100 µM
- GI50 [26]: > 100 µM
- TGI [26]: > 100 µM
- GI50 [27]: 20.7 µM
- TGI [27]: 79.3 µM
- GI50 [28]: > 100 µM
- TGI [28]: > 100 µM
- GI50 [29]: 84 µM
- TGI [29]: > 100 µM
- GI50 [30]: > 100 µM
- TGI [30]: > 100 µM
- GI50 [31]: 59.5 µM
- TGI [31]: > 100 µM
- GI50 [32]: 36.6 µM
- TGI [32]: > 100 µM
- GI50 [33]: > 100 µM
- TGI [33]: > 100 µM
- GI50 [34]: > 100 µM
- TGI [34]: > 100 µM
- GI50 [35]: > 100 µM
- TGI [35]: > 100 µM
- GI50 [36]: > 100 µM
- TGI [36]: > 100 µM
- GI50 [37]: 30.3 µM
- TGI [37]: > 100 µM
- GI50 [38]: > 100 µM
- TGI [38]: > 100 µM
- GI50 [39]: > 100 µM
- TGI [39]: > 100 µM
- GI50 [40]: > 100 µM
- TGI [40]: > 100 µM
- GI50 [41]: 76.8 µM
- TGI [41]: > 100 µM
- GI50 [42]: 69.3 µM
- TGI [42]: > 100 µM
- GI50 [43]: 53.5 µM
- TGI [43]: > 100 µM
